Earlier results, collected in PubChem BioAssay AID1259409 (Chemical Carcinogenesis Research Information System (CCRIS), 2018).

System: rodent chemically induced tumor inhibition, incidence and multiplicity
Assay: CCRIS tumor inhibitor studies
Conditions: Carcinogen: 2,2'-DIHYDROXY-DI-N-PROPYLNITROSAMINE, 53609-64-6, 13147-25-6, Carcinogen: 2,2'-DIHYDROXY-DI-N-PROPYLNITROSAMINE, 53609-64-6, 13147-25-6, Dose [Inhibitor]: 0, Route [Inhibitor]: ORAL, Species: RAT, Strain/Sex: F344/MALE, Promoter: NONE USED

COc1cc(/C=C/C(=O)O[C@H]2CC[C@]34C[C@]35CC[C@]3(C)[C@@H]([C@H](C)CCC=C(C)C)CC[C@@]3(C)[C@@H]5CC[C@H]4C2(C)C)ccc1O
tumour outcome (control, treated, inhibition, significance) (N-ETHYL-N-HYDROXYETHYL- NITROSAMINE, 3,2'-DIMETHYL-4-, N-ETHYL-N-HYDROXYETHYL- NITROSAMINE, 3,2'-DIMETHYL-4-, 1% IN DIET BEGINNING 1 WK POST LAST CARCINOGEN DOSE AND CONTINUING FOR 32 WK (STUDY DURATION: 36 WK), Target Tissue: Type of Lesion: LIVER: HEPATOCELLULAR CARCINOMA, Dose [Carcinogen]: 1000 MG/KG IP DHPN 2X, 1500 MG/KG GAV EHEN 2X AND 75 MG/KG SC DMAB 3X GIVEN OVER THE INITIAL 3 WK PERIOD AT 3-4 D INTERV): 6/14 (43%), 3/13 (23%), 47%, not calculated
tumour outcome (control, treated, inhibition, significance) (N-ETHYL-N-HYDROXYETHYL- NITROSAMINE, 3,2'-DIMETHYL-4-, N-ETHYL-N-HYDROXYETHYL- NITROSAMINE, 3,2'-DIMETHYL-4-, 1% IN DIET BEGINNING 1 WK POST LAST CARCINOGEN DOSE AND CONTINUING FOR 32 WK (STUDY DURATION: 36 WK), Target Tissue: Type of Lesion: LUNG: ADENOMA, Dose [Carcinogen]: 1000 MG/KG IP DHPN 2X, 1500 MG/KG GAV EHEN 2X AND 75 MG/KG SC DMAB 3X GIVEN OVER THE INITIAL 3 WK PERIOD AT 3-4 D INTERV): 7/14 (50%), 11/13 (85%), -70%, not calculated
tumour outcome (control, treated, inhibition, significance) (N-ETHYL-N-HYDROXYETHYL- NITROSAMINE, 3,2'-DIMETHYL-4-, N-ETHYL-N-HYDROXYETHYL- NITROSAMINE, 3,2'-DIMETHYL-4-, 1% IN DIET BEGINNING 1 WK POST LAST CARCINOGEN DOSE AND CONTINUING FOR 32 WK (STUDY DURATION: 36 WK), Target Tissue: Type of Lesion: LUNG: CARCINOMA, Dose [Carcinogen]: 1000 MG/KG IP DHPN 2X, 1500 MG/KG GAV EHEN 2X AND 75 MG/KG SC DMAB 3X GIVEN OVER THE INITIAL 3 WK PERIOD AT 3-4 D INTERV): 1/14 (7%), 7/13 (54%), -671%, p<0.05
outcome (N-ETHYL-N-HYDROXYETHYL- NITROSAMINE, 3,2'-DIMETHYL-4-, N-ETHYL-N-HYDROXYETHYL- NITROSAMINE, 3,2'-DIMETHYL-4-, 1% IN DIET BEGINNING 1 WK POST LAST CARCINOGEN DOSE AND CONTINUING FOR 32 WK (STUDY DURATION: 36 WK), Target Tissue: Type of Lesion: URINARY BLADDER: PAPILLOMA, Dose [Carcinogen]: 1000 MG/KG IP DHPN 2X, 1500 MG/KG GAV EHEN 2X AND 75 MG/KG SC DMAB 3X GIVEN OVER THE INITIAL 3 WK PERIOD AT 3-4 D INTERV): 0/14 (0%), 3/13 (23%), -100%, not calculated
tumour outcome (control, treated, inhibition, significance) (N-ETHYL-N-HYDROXYETHYLNITROSAMINE, 3,2'-DIMETHYL-4-AMINO-, N-ETHYL-N-HYDROXYETHYLNITROSAMINE, 3,2'-DIMETHYL-4-AMINO-, 1% IN DIET FOR 32 WK BEGINNING 1 WK POST CARCINOGEN TREATMENT (STUDY DURATION: 36 WK), Target Tissue: Type of Lesion: KIDNEY: ADENOMA, Dose [Carcinogen]: 1000 MG/KG BW DHPN TWICE , 1500 MG/KG BW EHEN TWICE, 75 MG/KG BW 3 TIMES ADMINISTERED OVER FIRST 3 WK): 6/14 (43%), 9/13 (69%), -60%, not significant
tumour outcome (control, treated, inhibition, significance) (N-ETHYL-N-HYDROXYETHYLNITROSAMINE, 3,2'-DIMETHYL-4-AMINO-, N-ETHYL-N-HYDROXYETHYLNITROSAMINE, 3,2'-DIMETHYL-4-AMINO-, 1% IN DIET FOR 32 WK BEGINNING 1 WK POST CARCINOGEN TREATMENT (STUDY DURATION: 36 WK), Target Tissue: Type of Lesion: KIDNEY: NEPHROBLASTOMA, Dose [Carcinogen]: 1000 MG/KG BW DHPN TWICE, 1500 MG/KG BW EHEN TWICE, 75 MG/KG BW 3 TIMES ADMINISTERED OVER FIRST 3 WK): 2/14 (14%), 0/13 (0%), 100%, not significant
tumour outcome (control, treated, inhibition, significance) (N-ETHYL-N-HYDROXYETHYLNITROSAMINE, 3,2'-DIMETHYL-4-AMINO-, N-ETHYL-N-HYDROXYETHYLNITROSAMINE, 3,2'-DIMETHYL-4-AMINO-, 1% IN DIET FOR 32 WK BEGINNING 1 WK POST CARCINOGEN TREATMENT (STUDY DURATION: 36 WK), Target Tissue: Type of Lesion: KIDNEY: TRANSITIONAL CELL CARCINOMA, Dose [Carcinogen]: 1000 MG/KG BW DHPN TWICE , 1500 MG/ KG BW EHEN TWICE, 75 MG/KG BW 3 TIMES ADMINISTERED OVER FIRST THREE WEEKS): 1/14 (7%), 2/13 (15%), -114%, not significant
tumour outcome (control, treated, inhibition, significance) (N-ETHYL-N-HYDROXYETHYLNITROSAMINE, 3,2'-DIMETHYL-4-AMINO-, N-ETHYL-N-HYDROXYETHYLNITROSAMINE, 3,2'-DIMETHYL-4-AMINO-, 1% IN DIET FOR 32 WK BEGINNING 1 WK POST CARCINOGEN TREATMENT (STUDY DURATION: 36 WK), Target Tissue: Type of Lesion: LARGE INTESTINE: CARCINOMA, Dose [Carcinogen]: 1000 MG/KG BW DHPN TWICE, 1500 MG/KG BW EHEN TWICE, 75 MG/KG BW 3 TIMES ADMINISTERED OVER 3 WK): 3/14 (21%), 6/13 (46%), -119%, not significant
tumour outcome (control, treated, inhibition, significance) (N-ETHYL-N-HYDROXYETHYLNITROSAMINE, 3,2'-DIMETHYL-4-AMINO-, N-ETHYL-N-HYDROXYETHYLNITROSAMINE, 3,2'-DIMETHYL-4-AMINO-, 1% IN DIET FOR 32 WK BEGINNING 1 WK POST CARCINOGEN TREATMENT (STUDY DURATION: 36 WK), Target Tissue: Type of Lesion: LIVER: HEPATOCELLULAR CARCINOMA, Dose [Carcinogen]: 1000 MG/KG BW DHPN TWICE , 1500 MG/KG BW EHEN TWICE 75 MG/KG BW 3 TIMES ADMINISTERED OVER FIRST 3 WK): 6/14 (43%), 3/13 (23%), 47%, not significant
